Results: the kinase profiling compilation of Christmann-Franck et al. (2016)

Experiments:
Test in all cases: radiometric filter-binding kinase assay, Kinaseprofiler
[1] = molecular target: EPHA7 (human) (UniProt Q15375); details: ATP 90 µM
[2] = molecular target: PRKCD (human) (UniProt Q05655); details: ATP 15 µM
[3] = molecular target: TSSK2 (human) (UniProt Q96PF2); details: ATP 15 µM
[4] = molecular target: PTK2 (human) (UniProt Q05397); details: ATP 70 µM
[5] = molecular target: EPHB4 (human) (UniProt P54760); details: ATP 10 µM
[6] = molecular target: DYRK2 (human) (UniProt Q92630); details: ATP 15 µM
[7] = molecular target: FLT1 (human) (UniProt P17948); details: ATP 200 µM
[8] = molecular target: CSK (human) (UniProt P41240); details: ATP 15 µM
[9] = molecular target: DMPK (human) (UniProt Q09013); details: ATP 10 µM
[10] = molecular target: PRKCB2 (human) (UniProt P05771); details: ATP 10 µM
[11] = molecular target: EPHA3 (human) (UniProt P29320); details: ATP 120 µM
[12] = molecular target: NTRK1 (human) (UniProt P04629); details: ATP 120 µM
[13] = molecular target: CSNK2A1 CSNK2B CSNK2A2 (human) (UniProt P19784+P68400+P67870); details: ATP 15 µM
[14] = molecular target: CDC42BPA (human) (UniProt Q5VT25); details: ATP 45 µM
[15] = molecular target: CAMK4 (human) (UniProt Q16566); details: ATP 10 µM
[16] = molecular target: ROCK2 (human) (UniProt O75116); details: ATP 15 µM
[17] = molecular target: PTK2B (human) (UniProt Q14289); details: ATP 90 µM
[18] = molecular target: TLK2 (human) (UniProt Q86UE8); details: ATP 10 µM
[19] = molecular target: ALK (human) (UniProt Q9UM73); details: ATP 200 µM
[20] = molecular target: MAPK12 (human) (UniProt P53778); details: ATP 15 µM
[21] = molecular target: MAP2K7 (human) (UniProt O14733); details: ATP 10 µM
[22] = molecular target: PLK1 (human) (UniProt P53350); details: ATP 70 µM
[23] = molecular target: PDGFRA (human) (UniProt P16234); details: ATP 120 µM
[24] = molecular target: FGFR2 (human) (UniProt P21802); details: ATP 90 µM
[25] = molecular target: PAK3 (human) (UniProt O75914); details: ATP 120 µM
[26] = molecular target: PRKCQ (human) (UniProt Q04759); details: ATP 15 µM
[27] = molecular target: PDGFRB (human) (UniProt P09619); details: ATP 200 µM
[28] = molecular target: NTRK2 (human) (UniProt Q16620); details: ATP 90 µM
[29] = molecular target: RET (human) (UniProt P07949); details: ATP 70 µM
[30] = molecular target: CSNK1G1 (human) (UniProt Q9HCP0); details: ATP 15 µM
[31] = molecular target: NEK3 (human) (UniProt P51956); details: ATP 120 µM
[32] = molecular target: MAPK13 (human) (UniProt O15264); details: ATP 15 µM
[33] = molecular target: MELK (human) (UniProt Q14680); details: ATP 45 µM

Sequence of CDC42BPA (human) (Q5VT25 whole entry, looked up): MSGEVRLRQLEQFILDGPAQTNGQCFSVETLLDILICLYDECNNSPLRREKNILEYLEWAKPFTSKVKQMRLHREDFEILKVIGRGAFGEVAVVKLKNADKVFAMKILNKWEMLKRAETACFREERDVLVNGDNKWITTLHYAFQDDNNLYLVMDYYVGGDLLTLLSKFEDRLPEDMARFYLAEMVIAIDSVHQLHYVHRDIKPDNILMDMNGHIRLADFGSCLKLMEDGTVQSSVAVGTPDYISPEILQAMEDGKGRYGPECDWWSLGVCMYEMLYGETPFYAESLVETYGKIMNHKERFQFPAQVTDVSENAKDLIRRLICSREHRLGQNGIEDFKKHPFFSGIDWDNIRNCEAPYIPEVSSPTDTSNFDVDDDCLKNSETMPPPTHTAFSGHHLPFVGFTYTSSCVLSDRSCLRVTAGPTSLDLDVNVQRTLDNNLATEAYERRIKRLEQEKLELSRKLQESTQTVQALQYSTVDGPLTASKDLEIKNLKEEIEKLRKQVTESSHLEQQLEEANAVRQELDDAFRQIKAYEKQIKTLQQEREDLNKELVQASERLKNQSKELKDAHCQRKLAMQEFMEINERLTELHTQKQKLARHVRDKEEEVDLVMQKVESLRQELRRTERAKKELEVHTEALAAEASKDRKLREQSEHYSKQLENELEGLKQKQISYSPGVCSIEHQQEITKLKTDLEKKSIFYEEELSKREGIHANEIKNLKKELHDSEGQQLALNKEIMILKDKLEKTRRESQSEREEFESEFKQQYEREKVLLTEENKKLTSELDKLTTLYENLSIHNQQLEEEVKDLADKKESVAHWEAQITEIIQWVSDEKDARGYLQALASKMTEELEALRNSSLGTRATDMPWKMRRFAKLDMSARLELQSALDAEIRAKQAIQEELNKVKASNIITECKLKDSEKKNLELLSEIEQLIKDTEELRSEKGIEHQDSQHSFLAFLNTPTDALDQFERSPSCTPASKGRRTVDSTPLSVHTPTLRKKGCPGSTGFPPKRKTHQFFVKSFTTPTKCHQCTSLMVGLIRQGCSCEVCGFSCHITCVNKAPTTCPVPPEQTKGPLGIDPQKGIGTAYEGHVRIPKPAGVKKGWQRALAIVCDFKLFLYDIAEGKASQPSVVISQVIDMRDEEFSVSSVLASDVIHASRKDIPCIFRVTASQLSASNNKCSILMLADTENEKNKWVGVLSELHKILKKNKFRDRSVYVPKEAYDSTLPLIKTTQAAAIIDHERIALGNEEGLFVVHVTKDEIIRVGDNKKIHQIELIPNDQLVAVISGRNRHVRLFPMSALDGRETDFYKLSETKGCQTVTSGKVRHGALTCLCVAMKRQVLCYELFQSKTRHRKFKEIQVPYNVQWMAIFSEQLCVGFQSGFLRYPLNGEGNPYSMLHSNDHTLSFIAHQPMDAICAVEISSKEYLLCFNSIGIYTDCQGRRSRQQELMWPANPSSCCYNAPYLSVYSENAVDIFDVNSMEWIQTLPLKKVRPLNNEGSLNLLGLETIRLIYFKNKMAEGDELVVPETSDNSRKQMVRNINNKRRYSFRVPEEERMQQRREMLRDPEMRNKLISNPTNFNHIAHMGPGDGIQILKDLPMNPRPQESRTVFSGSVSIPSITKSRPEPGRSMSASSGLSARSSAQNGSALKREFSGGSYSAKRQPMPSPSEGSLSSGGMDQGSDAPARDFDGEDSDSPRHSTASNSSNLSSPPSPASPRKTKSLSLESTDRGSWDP
Sequence of EPHB4 (human) (P54760 whole entry, looked up): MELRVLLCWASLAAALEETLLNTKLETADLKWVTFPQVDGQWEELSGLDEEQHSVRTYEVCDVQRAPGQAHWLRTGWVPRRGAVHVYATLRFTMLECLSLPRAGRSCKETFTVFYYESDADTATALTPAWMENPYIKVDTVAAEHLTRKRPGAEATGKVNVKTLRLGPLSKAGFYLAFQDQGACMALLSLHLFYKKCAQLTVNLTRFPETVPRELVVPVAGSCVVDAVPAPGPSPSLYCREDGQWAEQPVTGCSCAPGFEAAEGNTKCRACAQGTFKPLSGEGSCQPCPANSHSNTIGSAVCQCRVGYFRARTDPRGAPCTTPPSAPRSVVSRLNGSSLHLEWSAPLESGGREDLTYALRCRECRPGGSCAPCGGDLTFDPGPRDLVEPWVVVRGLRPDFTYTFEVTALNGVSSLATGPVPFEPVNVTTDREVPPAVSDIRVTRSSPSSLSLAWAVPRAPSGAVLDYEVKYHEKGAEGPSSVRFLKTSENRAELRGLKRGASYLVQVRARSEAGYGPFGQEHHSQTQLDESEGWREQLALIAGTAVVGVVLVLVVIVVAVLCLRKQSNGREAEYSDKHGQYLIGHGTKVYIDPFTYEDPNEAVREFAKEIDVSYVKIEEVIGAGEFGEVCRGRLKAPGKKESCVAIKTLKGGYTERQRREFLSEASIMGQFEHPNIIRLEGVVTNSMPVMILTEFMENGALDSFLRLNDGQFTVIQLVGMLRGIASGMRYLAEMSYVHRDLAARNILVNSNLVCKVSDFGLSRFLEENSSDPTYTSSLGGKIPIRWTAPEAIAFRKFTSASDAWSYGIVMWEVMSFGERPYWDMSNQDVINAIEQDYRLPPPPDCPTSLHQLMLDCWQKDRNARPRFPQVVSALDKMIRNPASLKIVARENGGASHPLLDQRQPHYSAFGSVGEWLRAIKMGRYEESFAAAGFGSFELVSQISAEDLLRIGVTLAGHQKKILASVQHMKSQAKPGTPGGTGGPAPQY
Sequence of PRKCD (human) (Q05655 whole entry, looked up): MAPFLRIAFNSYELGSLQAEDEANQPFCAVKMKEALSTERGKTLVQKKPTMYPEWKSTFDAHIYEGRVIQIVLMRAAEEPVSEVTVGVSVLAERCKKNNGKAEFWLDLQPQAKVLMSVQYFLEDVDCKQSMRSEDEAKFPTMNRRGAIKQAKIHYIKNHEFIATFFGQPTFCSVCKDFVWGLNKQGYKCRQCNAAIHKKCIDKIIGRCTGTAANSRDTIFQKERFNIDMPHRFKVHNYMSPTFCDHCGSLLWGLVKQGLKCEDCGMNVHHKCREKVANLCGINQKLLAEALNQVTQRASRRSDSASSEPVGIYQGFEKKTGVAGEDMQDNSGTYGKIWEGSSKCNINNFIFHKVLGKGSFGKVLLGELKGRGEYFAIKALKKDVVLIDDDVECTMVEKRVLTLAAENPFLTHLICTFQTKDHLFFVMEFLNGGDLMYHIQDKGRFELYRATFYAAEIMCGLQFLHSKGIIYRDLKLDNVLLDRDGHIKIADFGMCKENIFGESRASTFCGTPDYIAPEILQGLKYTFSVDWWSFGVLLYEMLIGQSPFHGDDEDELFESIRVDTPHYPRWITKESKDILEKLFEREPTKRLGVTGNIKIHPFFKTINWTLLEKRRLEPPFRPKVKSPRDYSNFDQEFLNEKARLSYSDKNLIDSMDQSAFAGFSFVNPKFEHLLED
Sequence of PTK2B (human) (Q14289 whole entry, looked up): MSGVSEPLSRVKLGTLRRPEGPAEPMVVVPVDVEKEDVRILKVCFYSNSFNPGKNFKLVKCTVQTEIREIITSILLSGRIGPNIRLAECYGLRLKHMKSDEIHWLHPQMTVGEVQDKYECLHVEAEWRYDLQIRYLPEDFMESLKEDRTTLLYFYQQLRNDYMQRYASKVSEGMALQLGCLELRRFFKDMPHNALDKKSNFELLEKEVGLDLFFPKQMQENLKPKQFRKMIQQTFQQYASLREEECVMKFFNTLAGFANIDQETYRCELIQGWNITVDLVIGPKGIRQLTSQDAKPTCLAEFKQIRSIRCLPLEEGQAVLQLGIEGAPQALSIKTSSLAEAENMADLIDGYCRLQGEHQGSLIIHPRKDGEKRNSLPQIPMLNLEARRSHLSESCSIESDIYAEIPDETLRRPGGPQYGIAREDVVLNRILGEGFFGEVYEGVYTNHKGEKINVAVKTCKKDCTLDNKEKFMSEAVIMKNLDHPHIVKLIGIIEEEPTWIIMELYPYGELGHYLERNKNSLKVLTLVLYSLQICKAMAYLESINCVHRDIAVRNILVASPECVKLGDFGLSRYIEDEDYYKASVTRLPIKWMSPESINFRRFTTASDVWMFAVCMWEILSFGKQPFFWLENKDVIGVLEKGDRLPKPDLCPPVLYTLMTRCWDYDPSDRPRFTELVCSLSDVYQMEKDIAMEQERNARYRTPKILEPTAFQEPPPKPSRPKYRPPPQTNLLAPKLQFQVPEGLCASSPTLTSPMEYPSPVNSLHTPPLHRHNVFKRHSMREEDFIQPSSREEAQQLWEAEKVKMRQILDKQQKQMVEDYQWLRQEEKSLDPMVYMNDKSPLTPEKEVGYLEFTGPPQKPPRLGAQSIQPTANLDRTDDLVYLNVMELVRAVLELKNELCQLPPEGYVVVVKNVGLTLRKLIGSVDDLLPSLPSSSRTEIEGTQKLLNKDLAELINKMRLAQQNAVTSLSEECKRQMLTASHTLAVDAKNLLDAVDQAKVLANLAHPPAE
Sequence of PLK1 (human) (P53350 whole entry, looked up): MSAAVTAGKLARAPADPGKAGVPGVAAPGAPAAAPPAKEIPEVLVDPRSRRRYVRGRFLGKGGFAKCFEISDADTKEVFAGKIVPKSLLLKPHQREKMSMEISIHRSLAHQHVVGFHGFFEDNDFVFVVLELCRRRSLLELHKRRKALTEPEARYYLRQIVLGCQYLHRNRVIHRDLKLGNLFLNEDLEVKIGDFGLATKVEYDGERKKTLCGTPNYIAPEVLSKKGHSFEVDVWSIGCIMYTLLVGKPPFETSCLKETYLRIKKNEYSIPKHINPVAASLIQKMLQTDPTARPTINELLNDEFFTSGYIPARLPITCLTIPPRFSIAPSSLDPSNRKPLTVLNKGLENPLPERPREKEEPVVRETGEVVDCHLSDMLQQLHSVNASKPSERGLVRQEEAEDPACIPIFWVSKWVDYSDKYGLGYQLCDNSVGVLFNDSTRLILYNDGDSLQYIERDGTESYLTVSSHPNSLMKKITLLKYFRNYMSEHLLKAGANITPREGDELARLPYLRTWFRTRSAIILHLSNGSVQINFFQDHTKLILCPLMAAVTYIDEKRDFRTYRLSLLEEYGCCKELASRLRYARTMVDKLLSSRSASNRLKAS

O=C1Nc2ccccc2/C1=C1\Nc2ccccc2\C1=N/O
residual activity ([1]; compound 1.0 µM): 70%
residual activity ([1]; compound 10.0 µM): 15%
residual activity ([2]; compound 1.0 µM): 85%
residual activity ([2]; compound 10.0 µM): 80%
residual activity ([3]; compound 1.0 µM): 95%
residual activity ([3]; compound 10.0 µM): 78%
residual activity ([4]; compound 1.0 µM): 39%
residual activity ([4]; compound 10.0 µM): 2%
residual activity ([5]; compound 1.0 µM): 67%
residual activity ([5]; compound 10.0 µM): 13%
residual activity ([6]; compound 1.0 µM): 79%
residual activity ([6]; compound 10.0 µM): 20%
residual activity ([7]; compound 1.0 µM): 1%
residual activity ([7]; compound 10.0 µM): 0%
residual activity ([8]; compound 1.0 µM): 101%
residual activity ([8]; compound 10.0 µM): 78%
residual activity ([9]; compound 1.0 µM): 109%
residual activity ([9]; compound 10.0 µM): 83%
residual activity ([10]; compound 1.0 µM): 95%
residual activity ([10]; compound 10.0 µM): 102%
residual activity ([11]; compound 1.0 µM): 58%
residual activity ([11]; compound 10.0 µM): 9%
residual activity ([12]; compound 1.0 µM): 0%
residual activity ([12]; compound 10.0 µM): 0%
residual activity ([13]; compound 1.0 µM): 112%
residual activity ([13]; compound 10.0 µM): 78%
residual activity ([14]; compound 1.0 µM): 142%
residual activity ([14]; compound 10.0 µM): 135%
residual activity ([15]; compound 1.0 µM): 66%
residual activity ([15]; compound 10.0 µM): 10%
residual activity ([16]; compound 1.0 µM): 85%
residual activity ([16]; compound 10.0 µM): 82%
residual activity ([17]; compound 1.0 µM): 14%
residual activity ([17]; compound 10.0 µM): 2%
residual activity ([18]; compound 1.0 µM): 60%
residual activity ([18]; compound 10.0 µM): 14%
residual activity ([19]; compound 1.0 µM): 52%
residual activity ([19]; compound 10.0 µM): 18%
residual activity ([20]; compound 1.0 µM): 95%
residual activity ([20]; compound 10.0 µM): 84%
residual activity ([21]; compound 1.0 µM): 52%
residual activity ([21]; compound 10.0 µM): 7%
residual activity ([22]; compound 1.0 µM): 83%
residual activity ([22]; compound 10.0 µM): 103%
residual activity ([23]; compound 1.0 µM): 87%
residual activity ([23]; compound 10.0 µM): 37%
residual activity ([24]; compound 1.0 µM): 22%
residual activity ([24]; compound 10.0 µM): 2%
residual activity ([25]; compound 1.0 µM): 88%
residual activity ([25]; compound 10.0 µM): 57%
residual activity ([26]; compound 1.0 µM): 81%
residual activity ([26]; compound 10.0 µM): 55%
residual activity ([27]; compound 1.0 µM): 84%
residual activity ([27]; compound 10.0 µM): 26%
residual activity ([28]; compound 1.0 µM): 0%
residual activity ([28]; compound 10.0 µM): 0%
residual activity ([29]; compound 1.0 µM): 1%
residual activity ([29]; compound 10.0 µM): 0%
residual activity ([30]; compound 1.0 µM): 57%
residual activity ([30]; compound 10.0 µM): 19%
residual activity ([31]; compound 1.0 µM): 86%
residual activity ([31]; compound 10.0 µM): 94%
residual activity ([32]; compound 1.0 µM): 90%
residual activity ([32]; compound 10.0 µM): 82%
residual activity ([33]; compound 1.0 µM): 15%
residual activity ([33]; compound 10.0 µM): 7%
